Laboratory results published in patent US20250195464A1, “ALOTAKETAL COMPOUNDS AND DERIVATIVES THEREOF FOR USE AS ANTIVIRAL AGENTS” (priority 2022, published 2025).
Read-outs that look alike come from different tables or passages of the source.

Tests used:
SARS-CoV-2 Omicron BA.1 = assay: microbe, parasite or virus in culture; type: cell-based; conditions: for inhibition of SARS-CoV-2 Omicron, dsRNA and nucleocapsids as indicators of viral load: Omicron BA.1, at the concentrations tested; for potency compared with Alotaketal C: dependence on R4 chirality; for SI (selectivity index): CC50 / EC50 BA.1
[1] = Cytotoxicity assay, PrestoBlue cell viability; type: cell-based; conditions: human; concentration required to reduce cell viability by 50%, Calu-3 cells, 48-hr incubation
Procedure: Calu-3 cells were seeded with 10^4 cells/well in 96-well plates. Twenty-four hr after seeding media was aspirated and serially diluted compounds (described above) were added for an additional 48-hr. incubation. Cellular viability was assessed with Presto Blue Cell Viability Assay™ (Thermo Fisher Scientific™) according to the manufacturer's instructions. Cells were incubated with 5% PrestoBlue™ reagent for 2 hr before reading on the SpectraMax Gemini™ XS spectrofluorometer (Molecular Devices, LLC.™) set at excitation and emission wavelengths of 555 and 585 nm, respectively. Cellular viability was expressed relative (%) to vehicle-treated cells. Data are from at least three independent experiments.

SARS-CoV-2 Omicron BA.2 = assay: microbe, parasite or virus in culture; type: cell-based; conditions: Severe acute respiratory syndrome coronavirus 2, Calu-3 cells
proteins Kinase C (PKC) = conditions: Wang 2016; cited from earlier work
mNG-SARS-CoV-2 [2] = assay: in vitro; conditions: human
[3] = system: SARS-CoV-2 Delta B.1.617.2; assay: microbe, parasite or virus in culture; type: cell-based
mNG-SARS-CoV-2 [4] = assay: microbe, parasite or virus in culture
SARS-CoV-2 VIDO = SARS-CoV-2 VIDO infection of Calu-3 cells, nucleocapsid and dsRNA staining; type: cell-based; conditions: Severe acute respiratory syndrome coronavirus 2, 3 hr pretreatment
SARS-CoV-2 Omicron BA.5 = assay: microbe, parasite or virus in culture; type: cell-based; conditions: Severe acute respiratory syndrome coronavirus 2, Calu-3 cells
mNG-SARS-CoV-2 [5] = type: cell-based; conditions: Huh7.5.1 cells pretreated 3 hours with serial dilutions
[6] = Severe acute respiratory syndrome coronavirus 2, Calu-3, read-out: EC50 BA.1

Structure (SMILES) | SARS-COV-2 Activity (SARS-CoV-2 Omicron BA.1) | inhibition of SARS-CoV-2 Omicron, dsRNA and nucleocapsids as indicators of viral load (SARS-CoV-2 Omicron BA.1; Calu-3 cells) | potency compared with Alotaketal C (SARS-CoV-2 Omicron BA.1) | CC50 at 48 h [1] | SI (selectivity index) (SARS-CoV-2 Omicron BA.1) | EC50 (SARS-CoV-2 Omicron BA.1; [6]) | also measured
CC(C)=CCC(C)CCCC1CCC[C@]2(C=C(CO)[C@H]3CC(=O)C(C)=C[C@H]3O2)O1 (stereo in doubt) [Compound I10-Cit3, (2S,4aR,6′R,8aR)-6′-(4,7-dimethyloct-6-en-1-yl)-4-(hydroxymethyl)-7-methyl-3′,4a,4′,5′,6′,8a-hexahydrospiro[chromene-2,2′-pyran]-6(5H)-one] | no | no inhibition activity | decreased | ≥ 100 µM | – | – | –
CC(C)=CCC(C)CCCC1CCC[C@]2(C=C(CO)[C@H]3CC(=O)C(C)=C[C@H]3O2)O1 (stereo in doubt) [Compound I10-Cit4, (2S,4aR,6'S,8aR)-6′-(4,7-dimethyloct-6-en-1-yl)-4-(hydroxymethyl)-7-methyl-3′,4a,4′,5′,6′,8a-hexahydrospiro[chromene-2,2′-pyran]-6(5H)-one] | yes | good inhibition | – | ≥ 12700 µM | 50872 | 0.25 µM | –
CC(=O)O[C@]1(C)C[C@@H](/C=C(\C)CCC=C(C)C)O[C@@]2(C=C(CO)[C@H]3CC(=O)C(C)=C[C@H]3O2)C1 [Alotaketal C] | yes | – | – | ≥ 100 µM | 181.8 | 0.55 µM | EC50 (SARS-CoV-2 Omicron BA.2; dsRNA marker, read-out: dsRNA (EC50), Omicron BA.2): 0.7 µM; EC50 (SARS-CoV-2 Omicron BA.2; nucleocapsid marker, read-out: Nucleocapsid (EC50), Omicron BA.2): 0.7 µM; activation of protein kinase C (proteins Kinase C (PKC)): activates; selectivity ratio (mNG-SARS-CoV-2 [2]): 850; EC50 ([3]; Calu-3 cells, dsRNA marker, read-out: dsRNA (EC50), Delta B.1.617.2): 3.9 µM; EC50 ([3]; Calu-3 cells, nucleocapsid marker, read-out: Nucleocapsid (EC50), Delta B.1.617.2): 4.9 µM; EC50 ([3]; Severe acute respiratory syndrome coronavirus 2, Calu-3, Calu-3 cells, dsRNA marker, read-out: dsRNA (EC50), Delta B.1.617.2): 3.96 µM; EC50 ([3]; Severe acute respiratory syndrome coronavirus 2, Calu-3, Calu-3 cells, nucleocapsid marker, read-out: Nucleocapsid (EC50), Delta B.1.617.2): 4.89 µM; EC50 (mNG-SARS-CoV-2 [4]; Severe acute respiratory syndrome coronavirus 2, Calu-3, read-out: EC50, inhibition of mNG-SARS-CoV-2 infection): 0.11 µM; EC50 (mNG-SARS-CoV-2 [4]; Severe acute respiratory syndrome coronavirus 2, Calu-3, read-out: EC50, secondary screening of hits): 0.08 µM; inhibition at 50 µM (mNG-SARS-CoV-2 [4]; Severe acute respiratory syndrome coronavirus 2, Calu-3, read-out: inhibition of SARS-CoV-2 infection): 90.6%; EC50 (SARS-CoV-2 VIDO; dsRNA marker, read-out: dsRNA EC50, VIDO): 1.33 µM; EC50 (SARS-CoV-2 VIDO; nucleocapsid marker, read-out: Nucleocapsid EC50, VIDO): 1.44 µM; EC50 (SARS-CoV-2 Omicron BA.5; dsRNA marker, read-out: dsRNA (EC50), Omicron BA.5): 0.7 µM; EC50 (SARS-CoV-2 Omicron BA.5; nucleocapsid marker, read-out: Nucleocapsid (EC50), Omicron BA.5): 0.3 µM; EC50 (SARS-CoV-2 Omicron BA.1; Severe acute respiratory syndrome coronavirus 2, Calu-3 cells, dsRNA marker, read-out: dsRNA (EC50), Omicron BA.1): 0.4 µM; EC50 (SARS-CoV-2 Omicron BA.1; Severe acute respiratory syndrome coronavirus 2, Calu-3 cells, nucleocapsid marker, read-out: Nucleocapsid (EC50), Omicron BA.1): 0.7 µM
CCCCCCCCCCCC[C@@H]1CCC[C@]2(C=C(CO)[C@H]3CC(=O)C(C)=C[C@H]3O2)O1 [Compound I10-DD2, (2S,4aR,6′R,8aR)-4-(hydroxymethyl)-7-methyl-6′-dodecyl-3′,4a,4′,5′,6′,8a-hexahydrospiro[chromene-2,2′-pyran]-6(5H)-one] | yes | good inhibition | – | ≥ 113 µM | 56.7 | 2 µM | –
CCCCCCCCCC[C@H]1CCC[C@]2(C=C(CO)[C@H]3CC(=O)C(C)=C[C@H]3O2)O1 [Compound I10-Dec01, (2S,4aR,6'S,8aR)-4-(hydroxymethyl)-7-methyl-6′-decyl-3′,4a,4′,5′,6′,8a-hexahydrospiro[chromene-2,2′-pyran]-6(5H)-one] | no | no inhibition activity | decreased | ≥ 339 µM | – | – | –
CCCCCCCCCC[C@@H]1CCC[C@]2(C=C(CO)[C@H]3CC(=O)C(C)=C[C@H]3O2)O1 [Compound I10-Dec02, (2S,4aR,6′R,8aR)-4-(hydroxymethyl)-7-methyl-6′-decyl-3′,4a,4′,5′,6′,8a-hexahydrospiro [chromene-2, 2′-pyran]-6 (5H)-one] | yes | good inhibition | – | 74.3 µM | 297.2 | 0.25 µM | –
CC1=C[C@H]2O[C@]3(C=C(CO)[C@H]2CC1=O)CCCCO3 [Compound I10-H, (2S,4aR,8aR)-4-(hydroxymethyl)-7-methyl-3′,4a,4′,5′,6′,8a-hexahydrospiro[chromene-2,2′-pyran]-6(5H)-one] | no | no inhibition activity | decreased | ≥ 100 µM | – | – | –
CCCCCCCC[C@@H]1CCC[C@]2(C=C(CO)[C@H]3CC(=O)C(C)=C[C@H]3O2)O1 [Compound I10-Oct, (2S,4aR,6′R,8aR)-4-(hydroxymethyl)-7-methyl-6′-octyl-3′,4a,4′,5′,6′,8a-hexahydrospiro[chromene-2,2′-pyran]-6(5H)-one] | yes | good inhibition | – | ≥ 101 µM | 100.6 | 1 µM | –
CC(C)C[C@H](NC(=O)OCc1ccccc1)C(=O)N[C@@H](C[C@@H]1CCNC1=O)C(O)S(=O)(=O)[O-].[Na+] (stereo partly drawn) [GC376] | – | – | – | – | – | – | reduction of mNG-SARS-CoV-2 infection (mNG-SARS-CoV-2 [5]): dose-dependent reduction
